Test results as given in patent WO2007139036A1, “Compound for controlling endoplasmic reticulum stress, and pharmaceutical composition comprising the compound as active ingredient” (Meiji Dairies Corp, priority 2006, dated 2007).

Columns and labels:
MIN6 cells [1] = test: Intracellular protein synthesis by metabolic labeling (35S-Met), MIN6 cells; type: cell-based, mouse; conditions: incubated for more than 24 hours
CHOP = CHOP expression by Northern blot, MIN6 cells; type: cell-based, mouse
heme-oxygenase 1 (HO-1) = test: HO-1 expression by Northern blot, MIN6 cells; type: cell-based, mouse
MIN6 cells [2] = test: Secondary screening: oxidative stress (H2O2)-derived cell death suppression, MIN6 cells; type: cell-based, mouse; parameters: key to oxidative stress-derived cell death inhibitory effect (class symbol): 一: 細胞死抑制効果無し; +: その中間程度の抑制効果を有する; ++: ダントロ レンの細胞死抑制効果と同程度; conditions: H2O2 66 μM, 24 h; for oxidative stress-derived cell death inhibitory effect, compared with N-acetylcysteine (NAC): NAC 1000 μM
[3] = system: kidney (proximal) tubule cells; test: Third screening: mouse endoplasmic reticulum stress model (tunicamycin), kidney tubules, HE and TUNEL; type: in vivo; conditions: 10 mg/kg/day intraperitoneal daily for 4 days before tunicamycin 1 mg/kg
GRP78 = GRP78 expression by Northern blot, MIN6 cells; type: cell-based, mouse
[4] = system: rat Parkinson disease model; conditions: cited from earlier work
XBP1 = XBP1 activation by RT-PCR, MIN6 cells; type: cell-based, mouse
[5] = Patent Document 1 (JP 2005-247728); cited from earlier work
[6] = other models; cited from earlier work
[7] = pre-administration from 24 h before H2O2 and simultaneous administration

## COc1ccc(-c2cc(=O)c3c(OC)c(OC)c(OC)c(OC)c3o2)cc1 [IN19, tangeretin]
MIN6 cells [1]
  intracellular protein synthesis (decreased to): about 60%
CHOP
  expression of CHOP: also increased
heme-oxygenase 1 (HO-1)
  expression of heme-oxygenase 1 (HO-1): also increased
MIN6 cells [2]
  oxidative stress-derived cell death inhibitory effect, compared with N-acetylcysteine (NAC): 効果はやや小さかった
MIN6 cells [2]; [7]
  oxidative stress-derived cell death inhibitory effect, compared with α-tocopherol and β-carotene: 同程度の効果が認められた
[3]; kidney on day 4 after tunicamycin
  tissue damage in renal tubules: ほぼ完全に抑制された
[3]; kidney on day 4 after tunicamycin (TUNEL)
  cell death in renal tubules: ほぼ完全に抑制された
GRP78
  expression of GRP78: at least not increased
[4]
  neuroprotective activity: neuroprotective
XBP1
  activation of XBP1: involves administration of IN19

## CCCCCC=CCC=CCCCCCCCC(=O)OCC(COP(=O)(O)OCCN)OC(=O)CCCCCCCC=CCC=CCCCCC (stereo not drawn) [ジリノレオイルホスファチジルエタノールァミン, dilinoleoylphosphatidylethanolamine]
[5]
  cell death induction suppressing activity: 細胞死誘導抑制活性
  endoplasmic reticulum stress suppressing activity: 小胞体ストレス抑制活性

## O=c1cc(-c2ccccc2)oc2ccccc12 [flavone]
MIN6 cells [2]
  oxidative stress-derived cell death inhibitory effect, compared with N-acetylcysteine (NAC): 効果はやや小さかった
MIN6 cells [2]; [7]
  oxidative stress-derived cell death inhibitory effect, compared with α-tocopherol and β-carotene: 同程度の効果が認められた

## COc1ccc(-c2cc(=O)c3c(OC)c(OC)c(OC)c(OC)c3o2)cc1OC [IN69, nobiletin]
[6]
  neuroprotective activity: neuroprotective
MIN6 cells [2]; [7]
  oxidative stress-derived cell death inhibitory effect (class symbol): 士

## COc1ccc(-c2cc(=O)c3c(OC)c(OC)c(OC)cc3o2)cc1OC [IN88, sinensetin]
MIN6 cells [2]
  oxidative stress-derived cell death inhibitory effect, compared with N-acetylcysteine (NAC): 効果はやや小さかった
MIN6 cells [2]; [7]
  oxidative stress-derived cell death inhibitory effect, compared with α-tocopherol and β-carotene: 同程度の効果が認められた
